Assay results taken from ChEMBL document CHEMBL2346630 (J Med Chem, 2013).
pKi: −log10 of the molar value.

Key:
Test in all cases: biochemical
[1] = target: Cyclin-dependent kinase 1/cyclin B1 (Homo sapiens, UniProt P06493)
Description: Inhibition of human recombinant His6 tagged CDK1/Cyclin B expressed in Sf21 insect cells after 40 mins by scintillation counting analysis

[2] = target: Cyclin-dependent kinase 7/ cyclin H (Homo sapiens, UniProt P50613)
Description: Inhibition of human recombinant His6 tagged CDK7/CyclinH/MAT1 expressed in Sf21 insect cells after 40 mins by scintillation counting analysis

[3] = target: CDK9/cyclin T1 (Homo sapiens, UniProt P50750)
Description: Inhibition of human recombinant His6 tagged CDK9/CyclinT1 expressed in Sf21 insect cells after 40 mins by scintillation counting analysis

[4] = target: Cyclin-dependent kinase 2/cyclin A (Homo sapiens, UniProt P24941)
Description: Inhibition of human recombinant His6 tagged CDK2/Cyclin A expressed in Sf21 insect cells after 40 mins by scintillation counting analysis

Cyclin-dependent kinase 7/ cyclin H, sequence (P51946 whole entry): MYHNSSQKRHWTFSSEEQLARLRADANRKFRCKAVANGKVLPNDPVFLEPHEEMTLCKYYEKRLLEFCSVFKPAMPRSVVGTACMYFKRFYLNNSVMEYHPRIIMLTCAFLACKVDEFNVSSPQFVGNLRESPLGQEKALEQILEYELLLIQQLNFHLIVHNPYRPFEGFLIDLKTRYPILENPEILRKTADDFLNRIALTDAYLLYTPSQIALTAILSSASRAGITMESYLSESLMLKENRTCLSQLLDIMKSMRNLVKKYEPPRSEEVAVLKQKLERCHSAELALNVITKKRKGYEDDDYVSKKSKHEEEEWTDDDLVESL
Cyclin-dependent kinase 7/ cyclin H, sequence (P50613 whole entry): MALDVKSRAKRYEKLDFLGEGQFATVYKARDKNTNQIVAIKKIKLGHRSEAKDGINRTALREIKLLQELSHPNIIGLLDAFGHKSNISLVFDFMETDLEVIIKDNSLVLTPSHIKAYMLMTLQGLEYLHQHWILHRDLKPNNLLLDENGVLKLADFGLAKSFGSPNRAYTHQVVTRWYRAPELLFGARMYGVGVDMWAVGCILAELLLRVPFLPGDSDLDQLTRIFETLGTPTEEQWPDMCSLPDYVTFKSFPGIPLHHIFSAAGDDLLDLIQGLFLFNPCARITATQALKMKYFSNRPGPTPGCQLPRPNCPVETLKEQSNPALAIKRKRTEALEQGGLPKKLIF
Cyclin-dependent kinase 1/cyclin B1, sequence (P06493 whole entry): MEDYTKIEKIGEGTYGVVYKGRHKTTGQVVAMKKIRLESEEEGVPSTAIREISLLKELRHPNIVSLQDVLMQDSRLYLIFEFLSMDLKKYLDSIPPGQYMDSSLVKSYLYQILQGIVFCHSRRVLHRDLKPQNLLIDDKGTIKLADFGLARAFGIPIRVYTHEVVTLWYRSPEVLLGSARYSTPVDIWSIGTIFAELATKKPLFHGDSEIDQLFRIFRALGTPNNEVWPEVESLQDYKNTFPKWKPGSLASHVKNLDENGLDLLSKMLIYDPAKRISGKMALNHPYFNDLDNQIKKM
Cyclin-dependent kinase 1/cyclin B1, sequence (P14635 whole entry, further chain): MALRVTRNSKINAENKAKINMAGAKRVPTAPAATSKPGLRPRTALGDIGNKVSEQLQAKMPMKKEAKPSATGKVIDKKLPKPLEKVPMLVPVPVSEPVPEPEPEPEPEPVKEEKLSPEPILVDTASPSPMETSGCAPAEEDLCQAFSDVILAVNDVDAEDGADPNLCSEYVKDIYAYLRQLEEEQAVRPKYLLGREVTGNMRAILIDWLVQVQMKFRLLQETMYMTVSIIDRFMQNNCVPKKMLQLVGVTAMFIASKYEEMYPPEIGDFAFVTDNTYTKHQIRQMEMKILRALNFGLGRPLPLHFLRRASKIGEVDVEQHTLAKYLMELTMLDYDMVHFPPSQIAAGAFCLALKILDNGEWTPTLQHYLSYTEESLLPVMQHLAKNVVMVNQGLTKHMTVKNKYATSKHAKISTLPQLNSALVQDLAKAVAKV
CDK9/cyclin T1, sequence (O60563 whole entry): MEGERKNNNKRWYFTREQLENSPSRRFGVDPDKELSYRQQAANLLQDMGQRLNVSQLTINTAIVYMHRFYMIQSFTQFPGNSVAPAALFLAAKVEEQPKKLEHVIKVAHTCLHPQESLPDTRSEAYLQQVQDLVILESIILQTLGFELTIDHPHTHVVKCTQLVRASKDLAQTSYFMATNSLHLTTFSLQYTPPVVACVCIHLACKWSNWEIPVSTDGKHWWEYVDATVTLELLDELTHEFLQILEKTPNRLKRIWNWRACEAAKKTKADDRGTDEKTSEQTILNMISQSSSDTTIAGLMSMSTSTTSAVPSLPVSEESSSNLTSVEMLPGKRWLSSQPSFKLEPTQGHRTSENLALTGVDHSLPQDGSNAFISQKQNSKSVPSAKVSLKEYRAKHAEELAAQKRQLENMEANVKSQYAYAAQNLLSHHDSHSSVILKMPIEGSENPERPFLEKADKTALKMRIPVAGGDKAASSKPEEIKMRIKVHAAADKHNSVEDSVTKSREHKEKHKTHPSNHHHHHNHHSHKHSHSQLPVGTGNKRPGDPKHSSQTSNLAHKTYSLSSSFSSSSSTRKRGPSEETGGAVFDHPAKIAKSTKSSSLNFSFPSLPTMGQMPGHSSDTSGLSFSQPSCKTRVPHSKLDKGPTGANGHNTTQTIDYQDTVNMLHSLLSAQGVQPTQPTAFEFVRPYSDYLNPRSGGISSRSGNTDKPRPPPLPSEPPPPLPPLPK
CDK9/cyclin T1, sequence (P50750 whole entry): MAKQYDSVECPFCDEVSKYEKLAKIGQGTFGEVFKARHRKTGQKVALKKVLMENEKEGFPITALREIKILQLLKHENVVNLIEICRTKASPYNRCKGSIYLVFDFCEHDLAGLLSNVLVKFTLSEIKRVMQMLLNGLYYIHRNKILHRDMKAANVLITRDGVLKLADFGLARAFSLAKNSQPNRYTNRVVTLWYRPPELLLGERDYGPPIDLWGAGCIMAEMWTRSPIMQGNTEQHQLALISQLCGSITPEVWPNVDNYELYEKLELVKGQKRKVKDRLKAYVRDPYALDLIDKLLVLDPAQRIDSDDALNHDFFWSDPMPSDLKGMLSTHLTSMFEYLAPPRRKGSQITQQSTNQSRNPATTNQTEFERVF

Structure (SMILES) | pKi [1] | pKi [2] | pKi [3] | pKi [4]
CNc1nc(-c2ccccc2)c(-c2ccnc(Nc3cccc([N+](=O)[O-])c3)n2)s1 | < 5.30 | < 5.30 | < 5.30 | –
CNc1nc(C)c(-c2nc(Nc3cccc([N+](=O)[O-])c3)ncc2O)s1 | 5.85 | < 5.30 | 6.03 | < 5.30
CNc1nc(C)c(-c2ccnc(Nc3cccc(S(N)(=O)=O)c3)n2)s1 | 8.22 | 5.71 | 8.70 | 8.40
CNc1nc(C)c(-c2nc(Nc3cccc(S(N)(=O)=O)c3)ncc2O)s1 | < 5.30 | < 5.30 | < 5.30 | < 5.30
CNc1nc(C)c(-c2nc(Nc3cccc(S(N)(=O)=O)c3)ncc2Cl)s1 | – | 6.16 | 7.96 | –
CNc1nc(C)c(-c2nc(Nc3cccc(S(N)(=O)=O)c3)ncc2C)s1 | – | 5.93 | 8.30 | 7.47
CCc1cnc(Nc2cccc(S(N)(=O)=O)c2)nc1-c1sc(NC)nc1C | 6.10 | 5.89 | 7.01 | 6.07
CCCc1cnc(Nc2cccc(S(N)(=O)=O)c2)nc1-c1sc(NC)nc1C | – | – | < 5.30 | < 5.30
CNc1nc(C)c(-c2nc(Nc3cccc(N4CCN(C(C)=O)CC4)c3)ncc2C#N)s1 | 7.37 | 7.04 | 8.15 | 7.37
CNc1nc(C)c(-c2nc(Nc3cccc(N4CCNCC4)c3)ncc2C#N)s1 | 7.38 | 7.17 | 8.30 | 7.25
CNc1nc(C)c(-c2nc(Nc3ccc(N4CCN(C(C)=O)CC4)cc3)ncc2C#N)s1 | 7.35 | 6.50 | 7.66 | 7.59
CNc1nc(C)c(-c2nc(Nc3ccc(N4CCNCC4)cc3)ncc2C#N)s1 | 7.10 | 7.15 | 8.22 | 7.41
CNc1nc(C)c(-c2nc(Nc3cccc(N4CCCCC4)c3)ncc2C#N)s1 | 7.46 | 6.54 | 8.05 | 7.38
CNc1nc(C)c(-c2nc(Nc3cccc(N4CCN(C(C)=O)CC4)c3)ncc2F)s1 | 7.59 | 6.52 | 8.15 | 7.38
CNc1nc(C)c(-c2nc(Nc3cccc(N4CCNCC4)c3)ncc2F)s1 | 7.62 | 6.71 | 8.40 | 7.70
CNc1nc(C)c(-c2nc(Nc3cccc(N4CCOCC4)c3)ncc2F)s1 | 7.74 | 6.33 | 8.52 | 7.70

Structure (SMILES) | pKi [1] | pKi [2] | pKi [3] | pKi [4]
CNc1nc(C)c(-c2nc(Nc3cccc(N4CCNCC4)c3)ncc2Cl)s1 | 7.06 | 6.81 | 8.40 | 7.35
CNc1nc(C)c(-c2nc(Nc3cccc(N4CCCNCC4)c3)ncc2F)s1 | 7.33 | 6.95 | 8.30 | 7.07
CNc1nc(C)c(-c2ccnc(Nc3cccc(N4CCCNCC4)c3)n2)s1 | 6.71 | 6.36 | 7.72 | 6.49
CNc1nc(CC(F)(F)F)c(-c2ccnc(Nc3cccc([N+](=O)[O-])c3)n2)s1 | < 5.30 | < 5.30 | 6.87 | < 5.30
CNc1nc(CC(F)(F)F)c(-c2ccnc(Nc3cccc(O)c3)n2)s1 | 6.25 | 5.46 | 6.61 | 6.55
CNc1nc(CC(F)(F)F)c(-c2ccnc(Nc3ccc(O)cc3)n2)s1 | 6.48 | 5.81 | 6.56 | 6.46
CNc1nc(CC(F)(F)F)c(-c2ccnc(Nc3cccc(S(N)(=O)=O)c3)n2)s1 | 6.81 | 5.70 | 6.81 | 6.65
CNc1nc(C(F)(F)F)c(-c2ccnc(Nc3cccc(S(N)(=O)=O)c3)n2)s1 | 8.82 | 7.33 | 8.70 | 8.70
CNc1nc(C(F)(F)F)c(-c2ccnc(Nc3ccc(S(N)(=O)=O)cc3)n2)s1 | 9.30 | 7.19 | 8.52 | 8.82
CNc1ncc(-c2ccnc(Nc3ccc(S(N)(=O)=O)cc3)n2)s1 | – | 7.27 | – | –
CNc1ncc(-c2ccnc(Nc3cccc(S(N)(=O)=O)c3)n2)s1 | 8.40 | 7.40 | 8.52 | 8.30
CNc1nc(C2CC2)c(-c2ccnc(Nc3cccc(S(N)(=O)=O)c3)n2)s1 | 7.74 | 6.56 | 7.80 | 8.70
CNc1nc(C2CC2)c(-c2ccnc(Nc3ccc(S(N)(=O)=O)cc3)n2)s1 | 8.70 | 6.59 | 8.10 | 7.89
CNc1nc(C2CC2)c(-c2ccnc(Nc3cccc(N4CCCNCC4)c3)n2)s1 | 6.75 | 6.33 | 7.18 | 6.49
CNc1nc(C)c(-c2ccnc(Nc3cccc([N+](=O)[O-])c3)n2)s1 | 8.30 | 6.38 | 8.70 | 8.52
